Results: PubChem BioAssay (NCI)
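Compound exposure: 48 hours, 5 concentrations, 96-well plates. TGI marks complete inhibition of growth.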

Assays:
Test in all cases: NCI-60 cell line screen, 48 h
[1] = tested on: SNB-19 CNS
[2] = tested on: HCT-15 colon
[3] = tested on: OVCAR-8 ovarian
[4] = tested on: MDA-MB-435
[5] = tested on: MDA-N
[6] = tested on: 786-0 renal
[7] = tested on: EKVX NSCLC
[8] = tested on: CAKI-1 renal
[9] = tested on: M14 melanoma
[10] = tested on: SK-MEL-2 melanoma
[11] = tested on: MALME-3M melanoma

`COc1cccc2c1OC1(C=C2)Oc2ccccc2C(=O)N1C` (stereo not drawn) was tested, and the TGI [1] was > 100 µM, the TGI [2] was > 100 µM and the TGI [3] was 54.4 µM. For the same compound, the TGI [4] was 59.8 µM, the TGI [5] was 44.9 µM and the TGI [6] was > 100 µM. The TGI [7] was > 100 µM, the TGI [8] was > 100 µM and the TGI [9] was > 100 µM. The TGI [10] was > 100 µM.

For `N#CC12C(=O)N=C(N)C1(C#N)C(c1ccco1)NC1=C2CCCC1` (stereo not drawn), the TGI [1] was > 100 µM, the TGI [2] was > 100 µM and the TGI [3] was > 100 µM. The TGI [4] was > 100 µM, the TGI [5] was > 100 µM and the TGI [6] was > 100 µM. For the same compound, the TGI [7] was > 100 µM, the TGI [8] was > 100 µM and the TGI [11] was > 100 µM. For the same compound, the TGI [9] was > 100 µM and the TGI [10] was > 100 µM.

With `O=S(=O)(CCn1c(Sc2ccccc2)c(Sc2ccccc2)c2ccccc21)c1ccccc1` the TGI [1] was > 100 µM, the TGI [2] was > 100 µM and the TGI [3] was > 100 µM. The TGI [4] was > 100 µM, the TGI [6] was > 100 µM and the TGI [7] was > 100 µM. For the same compound, the TGI [8] was > 100 µM, the TGI [11] was > 100 µM and the TGI [9] was > 100 µM. The TGI [10] was > 100 µM.

In the case of `COc1cc(NS(C)(=O)=O)ccc1Nc1cc(C)[nH]c2ccc3nccc3c12`, the TGI [1] is reported as > 100 µM, the TGI [2] is reported as > 100 µM and the TGI [3] is reported as > 100 µM. The TGI [4] was > 100 µM, the TGI [5] was > 100 µM and the TGI [6] was > 100 µM. For the same compound, the TGI [7] was > 100 µM, the TGI [8] was > 100 µM and the TGI [9] was > 100 µM. For the same compound, the TGI [10] was > 100 µM.

With `O=C(/C=C/c1ccc2c(c1)OCO2)CC(=O)C(=O)c1c[nH]c2ccccc12` the TGI [1] was > 100 µM, the TGI [2] was > 100 µM and the TGI [3] was > 100 µM. The TGI [4] was 68.5 µM, the TGI [5] was 91.3 µM and the TGI [6] was > 100 µM. The TGI [7] was > 100 µM, the TGI [8] was > 100 µM and the TGI [11] was > 100 µM. For the same compound, the TGI [9] was > 100 µM and the TGI [10] was > 100 µM.

For `O=C(O)/C=C(/C(=O)O)C12CCN3CC4=CCOC5CC(=O)NC1C5C4CC32` (stereo not drawn), the TGI [1] was > 100 µM, the TGI [2] was > 100 µM and the TGI [3] was > 100 µM. The TGI [4] was > 100 µM, the TGI [5] was > 100 µM and the TGI [6] was > 100 µM. The TGI [7] was > 100 µM, the TGI [8] was > 100 µM and the TGI [11] was > 100 µM. The TGI [9] was > 100 µM and the TGI [10] was > 100 µM.

In the case of `COP(=O)(/C=C/c1cc(C(=O)OCc2ccccc2)n(S(=O)(=O)c2ccccc2)c1)OC`, the TGI [1] is reported as > 100 µM, the TGI [2] is reported as > 100 µM and the TGI [3] is reported as > 100 µM. The TGI [4] was > 100 µM, the TGI [5] was > 100 µM and the TGI [6] was > 100 µM. The TGI [7] was > 100 µM, the TGI [8] was > 100 µM and the TGI [11] was > 100 µM. The TGI [9] was > 100 µM and the TGI [10] was > 100 µM.

`O=C1c2ccccc2-c2c1c(-c1ccc(F)cc1)nc1ccc3ccccc3c21` was tested, and the TGI [1] was > 100 µM, the TGI [2] was > 100 µM and the TGI [3] was > 100 µM. For the same compound, the TGI [4] was > 100 µM, the TGI [5] was > 100 µM and the TGI [6] was > 100 µM. For the same compound, the TGI [7] was > 100 µM, the TGI [8] was > 100 µM and the TGI [11] was > 100 µM. The TGI [9] was > 100 µM and the TGI [10] was > 100 µM.

For `CCOC(=O)C1=C(C)C2C=C(c3cccs3)CC(c3ccc(Cl)cc3)=C2OC1=O` (stereo not drawn), the TGI [1] was > 100 µM, the TGI [2] was 56.5 µM and the TGI [3] was > 100 µM. For the same compound, the TGI [4] was > 100 µM, the TGI [5] was > 100 µM and the TGI [6] was 67.1 µM. For the same compound, the TGI [7] was > 100 µM, the TGI [8] was > 100 µM and the TGI [9] was > 100 µM. For the same compound, the TGI [10] was > 100 µM.

For `C=CCSc1nnc2cc(CN3CCCC3)c(-c3ccc(Cl)cc3)nn12`, the TGI [1] was 71.7 µM, the TGI [2] was 45.1 µM and the TGI [3] was 57.1 µM. For the same compound, the TGI [4] was 41.7 µM, the TGI [5] was 34.2 µM and the TGI [6] was 33.7 µM. The TGI [7] was 43.8 µM, the TGI [8] was 77.5 µM and the TGI [11] was 43.2 µM. The TGI [9] was 34.7 µM and the TGI [10] was 34.5 µM.

For `CC1(C)CCCC2OC2CCC(C)(C)C1=O` (stereo not drawn), the TGI [1] was > 100 µM, the TGI [2] was > 100 µM and the TGI [3] was > 100 µM. The TGI [4] was > 100 µM, the TGI [5] was > 100 µM and the TGI [6] was > 100 µM. For the same compound, the TGI [7] was > 100 µM, the TGI [8] was > 100 µM and the TGI [11] was > 100 µM. The TGI [9] was > 100 µM and the TGI [10] was > 100 µM.

In the case of `CCC1(CC)C(=O)NN(C(=O)c2ccccc2)C1=O`, the TGI [1] is reported as > 100 µM, the TGI [2] is reported as > 100 µM and the TGI [3] is reported as > 100 µM. For the same compound, the TGI [4] was > 100 µM, the TGI [5] was > 100 µM and the TGI [6] was > 100 µM. The TGI [7] was > 100 µM, the TGI [8] was > 100 µM and the TGI [11] was > 100 µM. For the same compound, the TGI [9] was > 100 µM and the TGI [10] was > 100 µM.

With `O=c1c2sc(=S)n(-c3ccc(F)cc3)c2ncn1/N=C/c1ccc(F)cc1F` the TGI [1] was 62.6 µM, the TGI [2] was > 100 µM and the TGI [3] was 44.9 µM. The TGI [4] was > 100 µM, the TGI [5] was > 100 µM and the TGI [6] was 34.1 µM. It also gave a TGI [7] of 39.2 µM, a TGI [8] of 32.9 µM and a TGI [11] of 41.6 µM. It also gave a TGI [9] of 67.4 µM and a TGI [10] of 85.6 µM.

`[O-][n+]1ccccc1Sc1nc(Sc2cccc[n+]2[O-])nc(Sc2cccc[n+]2[O-])n1` was tested, and the TGI [1] was 26.1 µM, the TGI [2] was 2.93 µM and the TGI [3] was 1.99 µM. It also gave a TGI [4] of 4.15 µM, a TGI [6] of 2.53 µM and a TGI [7] of 5.81 µM. It also gave a TGI [8] of 2.11 µM, a TGI [11] of 4.06 µM and a TGI [9] of 3.06 µM. For the same compound, the TGI [10] was 3.71 µM.

Work on `N=C(N)SCc1ccc2c(c1)Sc1ccccc1O2` yielded a TGI [1] of 30.6 µM, a TGI [2] of 21.7 µM and a TGI [3] of 32.5 µM. The TGI [4] was 19.1 µM, the TGI [5] was 19 µM and the TGI [6] was 24.6 µM. For the same compound, the TGI [7] was 27 µM, the TGI [8] was 19.7 µM and the TGI [11] was 23.1 µM. It also gave a TGI [9] of 7.55 µM and a TGI [10] of 15.6 µM.

In the case of `Cc1cc(N(CCOS(C)(=O)=O)CCOS(C)(=O)=O)ccc1C=O`, the TGI [1] is reported as > 100 µM, the TGI [2] is reported as 71.8 µM and the TGI [3] is reported as > 100 µM. It also gave a TGI [4] of 28.8 µM, a TGI [5] of 26.4 µM and a TGI [7] of 22.9 µM. The TGI [8] was 1.25 µM, the TGI [11] was 28.1 µM and the TGI [9] was 30.5 µM. The TGI [10] was 72.9 µM.

`CCCCC(C(=O)NCCNC(=O)CCC(=O)N(C)O)C(=O)NCCNC(=O)CCC(=O)N(C)O` was tested, and the TGI [1] was > 100 µM, the TGI [2] was > 100 µM and the TGI [3] was > 100 µM. The TGI [4] was > 100 µM, the TGI [5] was > 100 µM and the TGI [6] was > 100 µM. The TGI [7] was > 100 µM, the TGI [8] was > 100 µM and the TGI [11] was > 100 µM. The TGI [9] was > 100 µM and the TGI [10] was > 100 µM.

In the case of `COc1cccc2c(=O)oc(-c3ccc(C(C)(C)C)cc3)nc12`, the TGI [1] is reported as > 100 µM, the TGI [2] is reported as > 100 µM and the TGI [3] is reported as > 100 µM. For the same compound, the TGI [4] was > 100 µM, the TGI [5] was > 100 µM and the TGI [6] was > 100 µM. For the same compound, the TGI [7] was > 100 µM, the TGI [8] was > 100 µM and the TGI [11] was > 100 µM. The TGI [9] was > 100 µM and the TGI [10] was > 100 µM.

Work on `CCN(CC)/C(SCc1ccccc1)=C(\C(Cl)=C(Cl)Cl)[N+](=O)[O-]` yielded a TGI [1] of 97.5 µM, a TGI [2] of 71.7 µM and a TGI [3] of 31.7 µM. It also gave a TGI [4] of 32 µM, a TGI [5] of 33.8 µM and a TGI [6] of 30.2 µM. For the same compound, the TGI [7] was 56.4 µM, the TGI [8] was 73.5 µM and the TGI [11] was 21.8 µM. The TGI [9] was 29.3 µM and the TGI [10] was 45.5 µM.

With `CN(C)c1ccc(C(=N/N=C2\C(=O)Nc3ccccc32)c2ccc(N(C)C)cc2)cc1` the TGI [1] was > 100 µM, the TGI [2] was 18.7 µM and the TGI [3] was 22.4 µM. For the same compound, the TGI [4] was 0.0567 µM, the TGI [6] was 13.2 µM and the TGI [7] was > 54.4 µM. The TGI [8] was 19.7 µM, the TGI [11] was > 52.1 µM and the TGI [9] was 14.4 µM. The TGI [10] was 2.72 µM.
